Laboratory results reported in patent publication US9050301B2, “Pharmaceutical composition for treatment of corneal endothelial wounds containing angiogenin” (Chung-Ang University Industry-Academy Cooperation Foundation, priority 2013, dated 2015).

How the values were obtained:
[1] = tested on: rabbit corneal endothelium; assay: Corneal transparency grade by slit-lamp after trans-corneal freezing damage; format: in vivo; conditions: mean ± SE
Procedure: (§1) 30 eyeballs of 15 healthy white New Zealand rabbits weighing about 2.0 kg to about 3.0 kg without external opacification were anesthetized by intramuscular injection with 12.5 mg/kg of tiletamine/zolazepam (Zoletil®, VirbacLab, France) and 12.5 mg/kg of zylazine (Rompun®, BayerKorea, Korea). Afterwards, 0.5% povidone-iodine was used for disinfection of the whole range of experimental sight. Referring to FIG. 1, an 8 mm-diameter stainless steel rod as a probe was immersed in liquid nitrogen for 3 minutes, removed therefrom once the temperature of the liquid nitrogen reached −196° C., and brought into contact to the central cornea for 15 seconds. Then, each of the eyeballs was washed with 10 cc of 0.9% saline solution. In order to prevent the occurrence of corneal infection, the rabbit corneas were given instillation of Levofloxacin (Cravit®, Santen, Japan) three times a day for 3 days after the damage was induced.
(§2) 3 groups consisting of 10 eyeballs given instillation of angiogenin (200 μg/mL), 7 eyeballs given Y-27632 (10 mM) inhibitor of Rho-associated coiled-coil kinase (ROCK) pathway, and 7 eyeballs as a control group given phosphate-buffered solution (PBS) were each subjected to 50 μl of instillation at a time, and more particularly, 6 times a day for the first 2 days, and then, 4 times a day for the following 2 days, starting immediately after inducing freeze-damages to the trans-corneal endothelium. That is, the instillation was performed 20 times in total for 4 days.
Then, the groups were subjected to the evaluation of corneal opacity and corneal edema by using a digital camera (VLUUNV100HD, Samsung, Suwon, Korea) to obtain images taken in a diagonal direction.
Experiments have been carried out to identify effects of angiogenin-induced PI3k-Akt signaling pathway in terms of recovering the corneal transparency after inducing damages to the corneal endothelium. After inducing freeze-damages to the corneal endothelium, 4 eyeballs out of 30 rabbit eyeballs in total were subjected to 50 μl of each of 200 μg/mL of angiogenin and 200 μM of PI3k-Akt pathway inhibitor, LY294002 instillation at a time every 3 minutes, and more particularly, 6 times a day for the first 2 days, and then, 4 times a day for the following one day. That is, the instillation was performed 16 times in total for 3 days.

[2] = tested on: rabbit corneal endothelium; assay: Alizarin red S-staining of corneal endothelium wounded area; format: in vivo; conditions: for Corneal endothelium wounded area observed by alizarin red S-staining: 192 hours (8th day) after freeze damage, compared with control group (p=0.050); for Morphology (hexagonality) of endothelial cells around the wounded area: 192 hours, 200× magnification
Procedure: as §1, §2
Two eyeballs out of 30 eyeballs in total were each used as a negative control group of normal corneal endothelium and as a positive control group being subjected to alizarin red S-staining immediately after inducing freeze-damages to the trans-corneal endothelium. An overdose of KCl was administrated into the rest of the eyeballs by intramuscular injection 192 hours (8th day) after inducing freeze-damages to the trans-corneal, and accordingly, these eyeballs were sacrificed. Then, 3 eyeballs were removed for each of the control group, the group given angiogenin instillation, and the group given Y-27632 instillation. Then, the whole cornea was pulled off with respect to the corneal limbal boundary, immersed in 1% alizarin red S-staining solution (Lab Chem, Pittsburgh, USA) for 2 minutes, washed with 0.9% saline solution, and then, wet-mount with the endothelium facing upward. Images thereof were immediately obtained after observation by using an optical microscope, and then, the wounded area of the cornea was measured in pixels for a digital image at 40× magnification by using the Image J software (National Institutes of Health (NIH); http://rsbweb.nih.gov/ij/), and the endothelial cells around the wounded areas were observed and compared in terms of hexagonality at 200× magnification.

Erk1/2 = assay: Western blot of angiogenin lower pathway, Erk1/2; format: cell-based, human; conditions: angiogenin 5 μg/ml
Procedure: (§3) The culture medium containing 5 μg/ml of angiogenin was treated with the cultured human corneal endothelial cells for 5 minutes, 10 minutes, 30 minutes, 1 hour, and 3 hours. Afterwards, according to the treatment times, expression aspects of Akt, eNOS, and Erk1/2 genes targeting the lower pathway of angiogenin were analyzed. First, a PRO-PREP™ protein extracting solution (Intron Biotechnology, Seongnam, Korea) was used to separate the total proteins from the corneal endothelial cells. The total proteins (30 μg/sample) were heat-treated at a temperature of about 100° C. for 5 minutes, and then, 10% sodiumdodecyl sulfate polyacrylamide (SDS-PAGE) gel was used to perform electrophoresis. The proteins separated according to molecular weights thereof were transferred to a polyvinylidene fluoride (PVDF) membrane, followed by being blocked by 5% BSA dissolved in 1× tris-buffered saline (TBS) at room temperature for 1 hour. […] The ECL western blotting detection reagent (Amersham Bioscience, Piscataway, USA) was used in terms of luminescence, and then, images were detected by using the same reagent for ChemiDoc™ XRS system (Bio-Rad, Hercules, USA).

Akt = assay: Western blot of angiogenin lower pathway, Akt; format: cell-based, human; conditions: angiogenin 5 μg/ml
Procedure: as §3

eNOS = assay: Western blot of angiogenin lower pathway, eNOS; format: cell-based, human; conditions: angiogenin 5 μg/ml
Procedure: as §3

[3] = 48 h after freeze damage, instillation 50 μl (angiogenin 200 μg/mL, Y-27632 10 mM), grade 0 transparent to +4.0 turbid (Table 1)
[4] = 72 h after freeze damage, instillation 50 μl (angiogenin 200 μg/mL, Y-27632 10 mM, LY294002 200 μM), grade 0 to +4.0 (Table 1)
[5] = 144 h after freeze damage, instillation 50 μl (angiogenin 200 μg/mL, Y-27632 10 mM), grade 0 to +4.0 (Table 1)
[6] = 192 h after freeze damage, instillation 50 μl (angiogenin 200 μg/mL, Y-27632 10 mM), grade 0 to +4.0 (Table 1)

| Molecule | Grade of corneal transparency (by using slit-lamp biomicroscope) [1, 3] | Grade of corneal transparency (by using slit-lamp biomicroscope) [1, 4] | Grade of corneal transparency (by using slit-lamp biomicroscope) [1, 5] | Grade of corneal transparency (by using slit-lamp biomicroscope) [1, 6] | Corneal endothelium wounded area observed by alizarin red S-staining [2] | Morphology (hexagonality) of endothelial cells around the wounded area [2] | Time of maximal p-Erk1/2 expression after angiogenin treatment (Erk1/2) | Relative expression of phosphate (p-form/t-form) of Erk1/2 compared with the control group (Erk1/2; 5 minutes to 3 hours) | Time of maximal p-Akt expression after angiogenin treatment (Akt) | Relative expression of phosphate (p-form/t-form) of Akt compared with the control group (Akt; 5 minutes to 3 hours) | Time of maximal p-eNOS expression after angiogenin treatment (eNOS) | Relative expression of phosphate (p-form/t-form) of eNOS compared with the control group (eNOS; 5 minutes to 3 hours) |
| --- | --- | --- | --- | --- | --- | --- | --- | --- | --- | --- | --- | --- |
| C[C@@H](N)[C@H]1CC[C@H](C(=O)Nc2ccncc2)CC1 [Y-27632, reference compound] | 4.00 ± 0 | 3.00 ± 0.41 | 1.38 ± 0.38 | 1.38 ± 0.38 | smaller wounded areas than those of the control group | significant modification of cell morpology |  |  |  |  |  |  |
| Angiogenin: 14.4-kDa single chain protein of 123 amino acids, secreted protein capable of inducing angiogenesis | 4.00 ± 0 | 2.65 ± 0.37 | 1.29 ± 0.26 | 1.29 ± 0.26 | smallest the corneal endothelium wounded area | corneal endothelial cells in even hexagonality | 30 min | increased extent of relative expression of phosphate (p-form/t-form) | 10 min | increased extent of relative expression of phosphate (p-form/t-form) | 3 h | increased extent of relative expression of phosphate (p-form/t-form) |
